Experimental data as given in patent publication US20240210412A1, “SULFONYL-TRIAZOLE COMPOUNDS USEFUL AS LIGANDS AND INHIBITORS OF PROSTAGLANDIN REDUCTASE 2” (University of Virginia Patent Foundation, priority 2021, published 2024).

Tests used:
Assay in all cases: SILAC LC-MS ABPP
Assay type in all cases: cell-based
Conditions in all cases: 25 μM 2 h, live DM93 cells
[1] = molecular target: T1, Q04323 (Homo sapiens, UniProt Q04323)
T1 construct: performing SuTEx compound screening directly in cells; endogenous in cells; host or cells: DM93 cells (SILAC)
Method in brief: (§1)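 SILAC DM93 melanoma; heavy cells got SuTEx fragment 25 μM 2 h 37 °C, light got DMSO; then HHS-475 100 μM 2 h. Soluble fraction (100,000×g) CuAAC to desthiobiotin-azide (200 μM), light/heavy mixed 1:1, tryptic digest, avidin enrichment, LC-MS/MS.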

[2] = molecular target: T2, Q6NZY4 (Homo sapiens, UniProt Q6NZY4)
T2 construct: endogenous in cells; host or cells: DM93 cells (SILAC), live-cell treatment
T2 sequence (Q6NZY4 whole entry): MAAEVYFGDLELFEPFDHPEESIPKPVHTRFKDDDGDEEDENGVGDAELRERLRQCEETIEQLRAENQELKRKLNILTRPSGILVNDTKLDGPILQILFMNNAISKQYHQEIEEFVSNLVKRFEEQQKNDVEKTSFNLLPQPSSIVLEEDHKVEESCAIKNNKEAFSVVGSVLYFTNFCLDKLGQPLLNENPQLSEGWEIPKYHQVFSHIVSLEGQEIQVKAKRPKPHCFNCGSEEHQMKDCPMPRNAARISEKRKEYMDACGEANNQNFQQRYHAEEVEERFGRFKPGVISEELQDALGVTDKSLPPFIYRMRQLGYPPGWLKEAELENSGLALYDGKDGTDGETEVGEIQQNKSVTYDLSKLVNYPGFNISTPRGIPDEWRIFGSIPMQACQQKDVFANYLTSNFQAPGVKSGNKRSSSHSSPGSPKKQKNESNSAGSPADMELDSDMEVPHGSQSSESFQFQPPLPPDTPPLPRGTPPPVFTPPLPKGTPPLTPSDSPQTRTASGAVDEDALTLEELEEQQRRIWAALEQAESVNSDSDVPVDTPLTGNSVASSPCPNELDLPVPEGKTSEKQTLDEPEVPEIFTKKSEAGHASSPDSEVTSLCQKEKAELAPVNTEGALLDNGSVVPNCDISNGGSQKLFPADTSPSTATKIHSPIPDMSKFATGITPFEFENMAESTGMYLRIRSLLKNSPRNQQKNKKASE
Method in brief: as §1

[3] = molecular target: T3, Q9BPW8 (Homo sapiens, UniProt Q9BPW8)
T3 construct: endogenous in cells; host or cells: DM93 cells (SILAC), treated live; soluble proteome analysed
T3 sequence (Q9BPW8 36-284): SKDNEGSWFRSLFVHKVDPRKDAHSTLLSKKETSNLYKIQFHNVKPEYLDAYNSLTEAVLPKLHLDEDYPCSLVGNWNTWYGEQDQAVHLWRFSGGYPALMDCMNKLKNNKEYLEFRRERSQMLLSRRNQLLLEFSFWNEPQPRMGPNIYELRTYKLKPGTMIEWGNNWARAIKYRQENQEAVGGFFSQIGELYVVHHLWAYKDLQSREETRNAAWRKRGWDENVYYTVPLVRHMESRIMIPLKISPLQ
Method in brief: as §1

[4] = molecular target: T4, P78537 (Homo sapiens, UniProt P78537)
T4 construct: performing SuTEx compound screening directly in cells; endogenous in cells; host or cells: DM93 cells (SILAC)
T4 sequence (P78537 whole entry): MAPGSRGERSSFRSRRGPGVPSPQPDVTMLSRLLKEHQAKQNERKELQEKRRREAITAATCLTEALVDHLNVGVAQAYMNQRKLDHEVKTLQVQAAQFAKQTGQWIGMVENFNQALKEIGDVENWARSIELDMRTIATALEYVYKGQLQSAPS
Method in brief: as §1

[5] = molecular target: T5, Q12874 (Homo sapiens, UniProt Q12874)
T5 construct: performing SuTEx compound screening directly in cells; endogenous in cells; host or cells: DM93 cells (SILAC)
Method in brief: as §1

[6] = molecular target: T6, Q12965 (Homo sapiens, UniProt Q12965)
T6 construct: performing SuTEx compound screening directly in cells; endogenous in cells; host or cells: DM93 cells (SILAC)
Method in brief: as §1

[7] = molecular target: T7, Q92889 (Homo sapiens, UniProt Q92889)
T7 construct: endogenous in cells; host or cells: DM93 cells (SILAC), live-cell treatment
Method in brief: as §1

[8] = molecular target: T8, O60506 (Homo sapiens, UniProt O60506)
T8 construct: endogenous in cells; host or cells: DM93
Method in brief: as §1

[9] = molecular target: T9, Q00341 (Homo sapiens, UniProt Q00341)
T9 construct: performing SuTEx compound screening directly in cells; endogenous in cells; host or cells: DM93 cells (SILAC)
T9 sequence (Q00341 whole entry): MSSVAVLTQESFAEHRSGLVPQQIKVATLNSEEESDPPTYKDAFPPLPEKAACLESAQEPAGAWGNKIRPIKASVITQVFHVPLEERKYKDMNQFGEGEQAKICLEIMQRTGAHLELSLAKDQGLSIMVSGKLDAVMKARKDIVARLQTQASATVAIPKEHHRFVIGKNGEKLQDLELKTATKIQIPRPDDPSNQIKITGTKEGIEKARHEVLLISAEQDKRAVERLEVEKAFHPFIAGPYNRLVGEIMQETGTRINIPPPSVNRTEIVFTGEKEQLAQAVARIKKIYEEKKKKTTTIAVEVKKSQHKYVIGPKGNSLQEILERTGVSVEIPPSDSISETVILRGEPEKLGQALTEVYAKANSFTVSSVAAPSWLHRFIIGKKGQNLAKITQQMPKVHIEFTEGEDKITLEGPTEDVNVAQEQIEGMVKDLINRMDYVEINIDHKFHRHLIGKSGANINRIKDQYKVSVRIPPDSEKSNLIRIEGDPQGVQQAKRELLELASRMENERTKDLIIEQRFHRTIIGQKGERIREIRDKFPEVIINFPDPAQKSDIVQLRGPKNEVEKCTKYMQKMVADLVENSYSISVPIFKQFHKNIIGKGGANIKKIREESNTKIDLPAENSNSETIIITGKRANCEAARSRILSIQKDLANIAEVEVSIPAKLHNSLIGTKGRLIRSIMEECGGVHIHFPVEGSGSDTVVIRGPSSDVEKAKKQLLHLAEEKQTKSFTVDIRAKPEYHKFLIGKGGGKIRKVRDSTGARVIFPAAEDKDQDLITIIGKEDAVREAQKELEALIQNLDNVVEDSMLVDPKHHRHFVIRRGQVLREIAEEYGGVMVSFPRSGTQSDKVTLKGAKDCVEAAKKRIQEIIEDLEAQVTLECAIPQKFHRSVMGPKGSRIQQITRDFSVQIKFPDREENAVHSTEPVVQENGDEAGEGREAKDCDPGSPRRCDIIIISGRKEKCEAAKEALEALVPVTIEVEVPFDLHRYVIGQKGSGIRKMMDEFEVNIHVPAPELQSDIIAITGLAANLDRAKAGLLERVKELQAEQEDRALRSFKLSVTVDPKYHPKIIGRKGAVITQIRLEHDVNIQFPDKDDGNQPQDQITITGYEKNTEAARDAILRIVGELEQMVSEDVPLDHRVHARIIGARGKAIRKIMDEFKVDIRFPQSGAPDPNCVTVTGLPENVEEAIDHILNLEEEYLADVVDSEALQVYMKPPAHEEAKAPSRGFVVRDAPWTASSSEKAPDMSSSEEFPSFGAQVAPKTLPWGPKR
Method in brief: as §1

[10] = molecular target: T10, Q9C0C2 (Homo sapiens, UniProt Q9C0C2)
T10 construct: endogenous in cells; host or cells: DM93 cells (SILAC), treated live; soluble proteome analysed
Method in brief: as §1

[11] = molecular target: T11, Q9UFN0 (Homo sapiens, UniProt Q9UFN0)
T11 construct: endogenous in cells; host or cells: DM93 cells (SILAC)
Method in brief: as §1

[12] = molecular target: T12, P51784 (Homo sapiens, UniProt P51784)
T12 construct: endogenous in cells; host or cells: DM93 cells (SILAC)
Method in brief: as §1

[13] = molecular target: T13, P53621 (Homo sapiens, UniProt P53621)
T13 construct: endogenous in cells; host or cells: DM93 cells (SILAC)
T13 sequence (P53621 whole entry): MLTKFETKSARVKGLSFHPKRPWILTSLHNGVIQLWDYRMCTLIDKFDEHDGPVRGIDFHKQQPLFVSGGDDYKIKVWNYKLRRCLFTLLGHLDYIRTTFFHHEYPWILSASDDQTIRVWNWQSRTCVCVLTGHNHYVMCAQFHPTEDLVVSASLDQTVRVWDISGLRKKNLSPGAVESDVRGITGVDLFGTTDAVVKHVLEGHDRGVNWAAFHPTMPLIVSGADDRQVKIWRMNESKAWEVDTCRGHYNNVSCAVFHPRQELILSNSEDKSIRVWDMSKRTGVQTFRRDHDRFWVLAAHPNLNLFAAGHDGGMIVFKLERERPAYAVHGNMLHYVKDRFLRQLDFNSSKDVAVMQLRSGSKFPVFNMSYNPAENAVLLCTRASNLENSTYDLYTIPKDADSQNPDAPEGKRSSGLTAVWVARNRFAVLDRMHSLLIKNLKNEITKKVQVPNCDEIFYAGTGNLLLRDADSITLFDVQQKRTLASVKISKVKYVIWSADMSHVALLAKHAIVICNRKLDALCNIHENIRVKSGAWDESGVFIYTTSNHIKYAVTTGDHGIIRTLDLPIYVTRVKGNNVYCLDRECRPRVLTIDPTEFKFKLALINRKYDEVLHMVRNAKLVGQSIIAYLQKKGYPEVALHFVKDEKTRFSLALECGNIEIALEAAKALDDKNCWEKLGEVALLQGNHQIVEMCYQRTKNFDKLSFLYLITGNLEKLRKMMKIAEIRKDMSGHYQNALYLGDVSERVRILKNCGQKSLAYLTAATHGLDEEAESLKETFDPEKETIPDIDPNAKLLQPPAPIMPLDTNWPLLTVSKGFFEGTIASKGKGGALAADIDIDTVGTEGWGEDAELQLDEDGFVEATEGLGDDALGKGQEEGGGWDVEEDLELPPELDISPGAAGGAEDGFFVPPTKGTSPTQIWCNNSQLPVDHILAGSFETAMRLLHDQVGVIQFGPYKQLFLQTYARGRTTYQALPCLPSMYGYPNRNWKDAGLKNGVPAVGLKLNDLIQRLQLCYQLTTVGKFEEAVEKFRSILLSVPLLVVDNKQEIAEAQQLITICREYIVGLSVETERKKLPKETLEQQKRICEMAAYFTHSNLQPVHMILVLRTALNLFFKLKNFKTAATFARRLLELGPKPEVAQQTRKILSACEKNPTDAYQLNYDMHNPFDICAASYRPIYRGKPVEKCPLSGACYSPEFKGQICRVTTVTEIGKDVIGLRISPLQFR
Method in brief: as §1

[14] = molecular target: T14, P68371 (Homo sapiens, UniProt P68371)
T14 construct: performing SuTEx compound screening directly in cells; endogenous in cells; host or cells: DM93 cells (SILAC)
Method in brief: as §1

[15] = molecular target: T15, Q13151 (Homo sapiens, UniProt Q13151)
T15 construct: performing SuTEx compound screening directly in cells; endogenous in cells; host or cells: DM93 cells (SILAC), soluble fraction
T15 sequence (Q13151 whole entry): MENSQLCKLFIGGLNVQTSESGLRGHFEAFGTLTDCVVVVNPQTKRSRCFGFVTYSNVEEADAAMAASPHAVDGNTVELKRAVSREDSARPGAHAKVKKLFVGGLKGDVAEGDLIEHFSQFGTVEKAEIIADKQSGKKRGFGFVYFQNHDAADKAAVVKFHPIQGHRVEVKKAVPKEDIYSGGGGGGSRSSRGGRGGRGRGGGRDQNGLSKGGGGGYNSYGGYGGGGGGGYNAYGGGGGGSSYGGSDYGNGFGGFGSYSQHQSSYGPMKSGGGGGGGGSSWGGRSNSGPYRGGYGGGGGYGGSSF
Method in brief: as §1

[16] = molecular target: T16, Q14978 (Homo sapiens, UniProt Q14978)
T16 construct: performing SuTEx compound screening directly in cells; endogenous in cells; host or cells: DM93 cells (SILAC), soluble fraction
Method in brief: as §1

[17] = molecular target: T17, Q15020 (Homo sapiens, UniProt Q15020)
T17 construct: performing SuTEx compound screening directly in cells; endogenous in cells; host or cells: DM93 cells (SILAC), soluble fraction
Method in brief: as §1

[18] = molecular target: T18, Q92900 (Homo sapiens, UniProt Q92900)
T18 construct: endogenous in cells; host or cells: DM93 cells (SILAC), live-cell treatment
T18 sequence (Q92900 whole entry): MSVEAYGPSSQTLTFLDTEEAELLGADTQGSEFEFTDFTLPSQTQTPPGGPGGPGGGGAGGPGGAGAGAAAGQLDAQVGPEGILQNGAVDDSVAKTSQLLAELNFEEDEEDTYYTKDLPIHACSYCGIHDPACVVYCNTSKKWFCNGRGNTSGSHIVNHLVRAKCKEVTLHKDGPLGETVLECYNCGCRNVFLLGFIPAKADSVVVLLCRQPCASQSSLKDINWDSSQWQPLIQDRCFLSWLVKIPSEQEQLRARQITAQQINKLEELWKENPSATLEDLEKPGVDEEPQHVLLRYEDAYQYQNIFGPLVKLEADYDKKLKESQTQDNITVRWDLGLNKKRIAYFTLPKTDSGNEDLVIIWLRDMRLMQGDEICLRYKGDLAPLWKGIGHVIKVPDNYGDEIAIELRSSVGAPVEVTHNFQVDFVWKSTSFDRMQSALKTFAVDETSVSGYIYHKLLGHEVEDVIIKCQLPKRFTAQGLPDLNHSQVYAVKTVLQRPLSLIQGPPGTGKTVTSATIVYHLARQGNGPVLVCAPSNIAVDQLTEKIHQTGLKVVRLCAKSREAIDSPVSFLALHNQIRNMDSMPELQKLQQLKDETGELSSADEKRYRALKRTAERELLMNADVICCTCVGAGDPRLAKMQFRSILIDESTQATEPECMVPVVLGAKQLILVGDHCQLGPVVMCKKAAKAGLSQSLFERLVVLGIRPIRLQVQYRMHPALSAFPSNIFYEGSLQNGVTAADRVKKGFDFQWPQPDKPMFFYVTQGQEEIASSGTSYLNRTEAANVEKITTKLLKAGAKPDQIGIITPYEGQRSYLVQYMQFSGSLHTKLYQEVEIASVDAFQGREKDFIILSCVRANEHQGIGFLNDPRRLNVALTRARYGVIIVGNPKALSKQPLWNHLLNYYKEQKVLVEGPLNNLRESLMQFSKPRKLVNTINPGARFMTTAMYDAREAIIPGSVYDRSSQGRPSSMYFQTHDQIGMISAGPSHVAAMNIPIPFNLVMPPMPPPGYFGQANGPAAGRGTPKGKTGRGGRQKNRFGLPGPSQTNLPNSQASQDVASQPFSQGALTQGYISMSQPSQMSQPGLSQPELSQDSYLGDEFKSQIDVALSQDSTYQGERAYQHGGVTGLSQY
Method in brief: as §1

[19] = molecular target: T19, Q9BWD1 (Homo sapiens, UniProt Q9BWD1)
T19 construct: endogenous in cells; host or cells: DM93 cells (SILAC), treated live; soluble proteome analysed
Method in brief: as §1

O=C(c1ccc(S(=O)(=O)n2cncn2)cc1)N1CCC(c2ccccc2)CC1 [HHS-0701, (4-((1H-1,2,4-triazol-1-yl)sulfonyl)phenyl)(4-phenylpiperidin-1-yl)methanone]
liganded tyrosine site 179 [1]: HHS0701.Y (tyrosine sites that showed >80% reductions (SR >5) in probe labeling in cells treated with compounds (liganded sites))
liganded tyrosine site 258 [2]: HHS0701.Y (tyrosine sites that showed >80% reductions (SR >5) in probe labeling in cells treated with compounds (liganded sites))
liganded tyrosine site 83 [3]: HHS0701.Y (tyrosine sites that showed >80% reductions (SR >5) in probe labeling in cells treated with compounds (liganded sites))

O=C(NC1CCCCC1)c1ccc(S(=O)(=O)n2cncn2)cc1 [HHS-0301, 4-((1H-1,2,4-triazol-1-yl)sulfonyl)-N-cyclohexylbenzamide]
liganded tyrosine site 78 [4]: HHS0301.Y|HHS0401.Y|HHS0701.Y (tyrosine sites that showed >80% reductions (SR >5) in probe labeling in cells treated with compounds (liganded sites))
liganded tyrosine site 139 [5]: HHS0301.Y (tyrosine sites that showed >80% reductions (SR >5) in probe labeling in cells treated with compounds (liganded sites))
liganded tyrosine site 9 [6]: HHS0301.Y (tyrosine sites that showed >80% reductions (SR >5) in probe labeling in cells treated with compounds (liganded sites))
liganded tyrosine site 344 [7]: HHS0301.Y|HHS0401.Y (tyrosine sites that showed >80% reductions (SR >5) in probe labeling in cells treated with compounds (liganded sites))

O=C(NCC1CC1)c1ccc(S(=O)(=O)n2cncn2)cc1 [HHS-0201, 4-((1H-1,2,4-triazol-1-yl)sulfonyl)-N-(cyclopropylmethyl)benzamide]
liganded tyrosine site 570 [8]: HHS0201.Y|HHS0301.Y|HHS0401.Y|HHS0701.Y (tyrosine sites that showed >80% reductions (SR >5) in probe labeling in cells treated with compounds (liganded sites))
liganded tyrosine site 582 [9]: HHS0201.Y (tyrosine sites that showed >80% reductions (SR >5) in probe labeling in cells treated with compounds (liganded sites))
liganded tyrosine site 897 [10]: HHS0201.Y|HHS0301.Y|HHS0401.Y|HHS0701.Y (tyrosine sites that showed >80% reductions (SR >5) in probe labeling in cells treated with compounds (liganded sites))
liganded tyrosine site 42 [11]: HHS0201.Y|HHS0301.Y|HHS0401.Y|HHS0701.Y (tyrosine sites that showed >80% reductions (SR >5) in probe labeling in cells treated with compounds (liganded sites))

O=C(NC1CC1)c1ccc(S(=O)(=O)n2cncn2)cc1 [HHS-0101, 4-((1H-1,2,4-triazol-1-yl)sulfonyl)-N-cyclopropylbenzamide]
liganded tyrosine site 396 [12]: HHS0101.Y (tyrosine sites that showed >80% reductions (SR >5) in probe labeling in cells treated with compounds (liganded sites))
liganded tyrosine site 628 [13]: HHS0101.Y|HHS0401.Y|HHS0701.Y (tyrosine sites that showed >80% reductions (SR >5) in probe labeling in cells treated with compounds (liganded sites))
liganded tyrosine site 50 [14]: HHS0101.Y (tyrosine sites that showed >80% reductions (SR >5) in probe labeling in cells treated with compounds (liganded sites))
liganded tyrosine site 180 [15]: HHS0101.Y (tyrosine sites that showed >80% reductions (SR >5) in probe labeling in cells treated with compounds (liganded sites))
liganded tyrosine site 289 [16]: HHS0101.Y|HHS0701.Y (tyrosine sites that showed >80% reductions (SR >5) in probe labeling in cells treated with compounds (liganded sites))
liganded tyrosine site 541 [17]: HHS0101.Y|HHS0201.Y|HHS0301.Y|HHS0401.Y|HHS0701.Y (tyrosine sites that showed >80% reductions (SR >5) in probe labeling in cells treated with compounds (liganded sites))
liganded tyrosine site 518 [18]: HHS0101.Y|HHS0201.Y|HHS0401.Y|HHS0701.Y (tyrosine sites that showed >80% reductions (SR >5) in probe labeling in cells treated with compounds (liganded sites))
liganded tyrosine site 946 [18]: HHS0101.Y (tyrosine sites that showed >80% reductions (SR >5) in probe labeling in cells treated with compounds (liganded sites))
liganded tyrosine site 237 [19]: HHS0101.Y|HHS0201.Y|HHS0301.Y|HHS0401.Y (tyrosine sites that showed >80% reductions (SR >5) in probe labeling in cells treated with compounds (liganded sites))
